# Measured values as given in the supplement of paper PMC10307832.
# Legend:
# Experiment in all cases: relative viability (nuclei count vs DMSO), 5 days (fraction); higher = more cells survive
# [1] = compound: Cn1cc(-c2cnn3c(N)c(Br)c([C@@H]4CCCNC4)nc23)cn1 + C[C@]1(O)C[C@@H](c2nc(-c3ccc4ccc(-c5ccccc5)nc4c3)c3c(N)nccn32)C1 [Linsitinib] (partner 1 µM)
# Outline: (§1)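 Lung cancer cell lines, seeded in 1536-well plates, were treated the following day by pin tool with a single drug or with five library-drug doses (not always all listed) in √10 steps on top of a fixed anchor-drug dose. Cells were fixed and nuclei stained in one step after 5 days, and nuclei were counted. Relative viability is the nuclei count for treated wells divided by that for vehicle wells, reported as medians of duplicate plates.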
# [2] = compound: Cn1cc(-c2cnn3c(N)c(Br)c([C@@H]4CCCNC4)nc23)cn1 + COc1cccc2cc(-c3nc([C@H]4CC[C@H](C(=O)O)CC4)n4ncnc(N)c34)[nH]c12 [OSI-027] (partner 0.5 µM)
# Outline: as §1
# [3] = compound: Cn1cc(-c2cnn3c(N)c(Br)c([C@@H]4CCCNC4)nc23)cn1 + Cc1nc(NC(=O)N2CCC[C@H]2C(N)=O)sc1-c1ccnc(C(C)(C)C(F)(F)F)c1 [Alpelisib] (partner 2 µM)
# Outline: as §1
# [4] = compound: Cn1cc(-c2cnn3c(N)c(Br)c([C@@H]4CCCNC4)nc23)cn1 + CS(=O)(=O)CCNCc1ccc(-c2ccc3ncnc(Nc4ccc(OCc5cccc(F)c5)c(Cl)c4)c3c2)o1 [Lapatinib] (partner 2 µM)
# Outline: as §1
Cell Line,relative viability ([1]; first compound 0.05 µM),relative viability ([1]; first compound 0.1581 µM),relative viability ([1]; first compound 0.5 µM),relative viability ([1]; first compound 1.581 µM),relative viability ([1]; first compound 5 µM),relative viability ([2]; first compound 0.05 µM),relative viability ([2]; first compound 0.1581 µM),relative viability ([2]; first compound 0.5 µM),relative viability ([2]; first compound 1.581 µM),relative viability ([2]; first compound 5 µM),relative viability ([3]; first compound 0.05 µM),relative viability ([3]; first compound 0.1581 µM),relative viability ([3]; first compound 0.5 µM),relative viability ([3]; first compound 1.581 µM),relative viability ([3]; first compound 5 µM),relative viability ([4]; first compound 0.05 µM),relative viability ([4]; first compound 0.1581 µM),relative viability ([4]; first compound 0.5 µM),relative viability ([4]; first compound 1.581 µM),relative viability ([4]; first compound 5 µM)
NCI-H2405,0.922,0.875,1.02,0.842,0.785,0.607,0.594,0.652,0.623,0.54,0.816,0.753,0.814,0.777,0.542,1.06,1.17,1.01,0.993,0.85
NCI-H3122,1.02,1.06,0.964,1.08,1.09,1.26,1.06,0.987,0.543,0.929,0.79,0.856,0.806,0.717,0.869,1.1,1.07,1.07,1.04,1.05
PC-3 [JPC-3],0.966,0.989,0.975,0.975,1.03,0.717,0.918,0.804,0.702,0.847,1.12,1.13,1.13,0.965,1.12,0.423,0.504,0.474,0.416,0.482
PC-14,0.854,1.11,1.05,0.877,0.578,1.02,0.83,0.638,0.248,0.206,0.939,1.14,0.883,0.858,0.485,0.322,0.366,0.363,0.332,0.257
RERF-LC-KJ,0.932,0.936,0.914,0.809,0.749,0.639,0.543,0.535,0.527,0.511,0.849,0.846,0.892,0.708,0.717,0.917,0.966,0.862,0.828,0.771
SK-LU-1,1.13,–,0.465,0.318,0.255,0.39,0.279,0.237,0.248,0.183,1.19,–,0.463,0.339,0.248,0.871,0.585,0.758,0.321,0.19
SK-MES-1,1.05,1.1,1.04,0.971,0.289,0.621,0.562,0.416,0.244,0.16,1.01,1.03,0.94,0.763,0.592,0.491,0.544,0.514,0.392,0.431
SW 1573,0.689,0.775,0.888,0.753,0.805,0.547,0.745,0.606,0.505,0.465,0.779,1.07,0.801,0.78,0.616,1.14,1.22,1.15,1.01,1.1
UMC-11,1.18,1.08,0.991,0.818,0.507,0.495,0.427,0.438,0.267,0.279,1.04,1.07,0.675,0.621,0.579,1.09,1,0.699,0.624,0.463
